The text below walks through data of patent US11407725B2 (The Board of Trustees of the University of Illinois, priority 2018, dated 2022).

Broadly, the pKa is the negative logarithm of the acid dissociation constant.

Several values for one entry are separate records, joined by “and”; a condition that tells them apart may be missing. Identical values can stand only once. Entries after “also recorded” stand apart in the source; their conditions may differ.

A short description of data set [1]: Photophysical properties (absorbance, emission, extinction coefficient, quantum yield). It is filed as physicochemical. As to conditions: for λabs: maximum absorbance.
Data set [2] relates to K562 cells. As to the kind of experiment: Trypan blue cytotoxicity / viability assay. It is filed as cell-based. As to conditions: K562 cells; 6, 12 and 24 hours. The protocol: K562 cells were plated in a 96-well plate with 50,000 cells per well. Each well was filled to a final volume of 100 μL IMDM media with 0.25% DMSO. Wells were tested using red-AlDeSense or Ctrl-red-AlDeSense (1 μM and 5 μM each) or using a DMSO control. After 6-, 12-, and 24-hour incubation periods at 37° C. and 5% CO2, a 10 μL sample was removed from each condition and combined with 10 μL 0.4% w/v trypan blue in PBS. Samples were incubated for 3 minutes at room temperature before being loaded on a hemocytometer where live and dead cells were counted. Conditions were tested in triplicate for each time point. Samples were analyzed on an EVOS digital inverted microscope using transmitted white light for brightfield imaging and the Cy5 filter cube for trypan blue visualization.
K562 cells were plated in a 96-well plate at a density of 500,000 cells/mL in full IMDM media supplemented with either 1 μM or […] AlDeSense AM. Equivalent samples were supplemented with 1 μM or […] as a vehicle control. At 6, 12, and 24 hours, a 10 μL sample was removed from each of the samples and mixed 1:1 with a 0.4% wt/volume trypan blue solution in PBS. Samples were incubated for 1 minute at room temperature before being loaded onto a hemocytometer where live and dead cells were counted. Each sample was made in triplicate for each time point.

Data set [3] concerns the target T1, ALDH1A1 (Homo sapiens, UniProt P00352).
T1 construct: made in house
T1 sequence (P00352 1-501): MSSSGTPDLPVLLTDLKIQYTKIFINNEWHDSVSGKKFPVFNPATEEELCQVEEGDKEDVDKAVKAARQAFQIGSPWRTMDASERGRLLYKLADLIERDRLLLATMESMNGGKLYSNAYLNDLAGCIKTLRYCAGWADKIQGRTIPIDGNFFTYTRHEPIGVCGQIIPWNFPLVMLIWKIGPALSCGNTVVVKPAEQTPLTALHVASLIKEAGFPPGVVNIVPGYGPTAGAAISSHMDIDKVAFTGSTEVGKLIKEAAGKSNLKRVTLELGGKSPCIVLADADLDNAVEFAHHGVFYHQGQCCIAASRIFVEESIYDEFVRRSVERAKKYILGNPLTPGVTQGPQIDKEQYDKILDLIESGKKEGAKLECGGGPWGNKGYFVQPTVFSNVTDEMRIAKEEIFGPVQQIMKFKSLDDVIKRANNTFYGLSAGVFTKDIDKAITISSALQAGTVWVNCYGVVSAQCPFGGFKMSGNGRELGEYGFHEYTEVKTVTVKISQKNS
In words: ALDH1A1 kinetics. In kind it is biochemical. The protocol:
Solutions were prepared of 2.0 mM NAD+ and 0.1-2.5 μM AlDeSense or red-AlDeSense in 50 mM triethanolamine solution (pH 7.4). For every concentration, 1 unit of enzyme (as defined and determined in ALDH Isoform Selectivity) was added. Fluorescence was monitored for 30 seconds to determine V0. AlDeSense was excited at 490 nm and monitored at 510 nm. Red-AlDeSense was excited at 590 nm and monitored at 610 nm. Each condition was performed in triplicate. Protein concentration was determined using the Pierce™ BCA Protein Assay Kit. Data was analyzed using Microsoft Excel.

Data set [4] in a line: physchem.
Description: The fluorescence of 1 μM of each compound was measured in 40 mM Britton-Robinson buffer at pH 2-9 in 0.5 pH intervals. Each measurement was performed in triplicate. […] Error bars are ±standard deviation (SD).
Data set [5] is described as follows: Response to reactive species, biological thiols and amines (chemostability).
Description: (e) Response of AlDeSense to various reactive oxygen species, biological thiols, and amines at concentrations of 100 μM (GSH was tested at 1 mM). For all assays, AlDeSense was used at 1 μM final concentration.
All assays were performed in 50 mM triethanolamine buffer red-AlDeSense was used at 2 μM. Enzyme concentrations affording 1 nmol substrate/minute were used. Reactive species were tested at 100 μM, except glutathione which was at 1 mM.
Data set [6] concerns the target T1, ALDH1A1. In words: Fluorescence turn-on of AlDeSense with recombinant ALDH1A1. In kind it is biochemical. The settings on record: fluorescent enhancement when treated with ALDH1A1; 1 μM probe. The protocol:
Activation of AlDeSense was assessed using 20 units of each ALDH isoform. Activity was determined by activity measurements using each isoform's preferred substrate (1 unit=1 μmol substrate turned over/mol enzyme/min). Further details are in the supplementary information. All enzymatic reactions were performed in 50 mM triethanolamine buffer (pH 7.4, Thermo Fisher) with 2.5 mM NAD+(Alfa Aesar) and 5% v/v DMSO (Thermo Fisher) in a 1 mL quartz cuvette at room temperature.
AlDeSense activation was determined using fluorescence. Immediately before measurement, AlDeSense (1 μM) was added to a quartz cuvette. After vigorous mixing, the reaction was monitored at room temperature for 15 min. Fluorescence spectra were acquired according to following parameters: λex=498 nm, and emission range=505-580 nm. All scans were normalized to the signal from AlDeSense in 50 mM TEA and 2.5 mM NAD+(without enzyme). Endpoint measurements at 15 min were performed in triplicate and reported as the averages±standard deviation.

The subject of data set [7] is panel of the most common ALDH isoforms. As to the kind of experiment: AlDeSense isoform selectivity assay. It is filed as biochemical, human. As to conditions: 20 units of each isoform, 1 μM AlDeSense. The protocol:
The activity of each isoform of ALDH was confirmed by monitoring the production of NADH at 340 nm when incubated with the most commonly used substrate for that enzyme (propionaldehyde for ALDH1A1, ALDH1A2, ALDH1A3, ALDH2 and ALDH4A1; benzaldehyde for ALDH3A1, and succinic semialdehyde for ALDH5A1). Each isoform was diluted with 50 mM triethanolamine (TEA, pH 7.4) to a final concentration of 1 μM and placed in a 1 mL quartz cuvette. Directly before measurement, NAD^+ was added to final concentration of 2.5 mM and the preferred substrate was added to a final concentration of 1 mM. Absorbance spectra were taken from 300 to 500 nm every half minute for 15 minutes. Units of activity for each enzyme were calculated from the slope of absorbance increase at 340 nm over time, (1 unit=1 μmol substrate turned over/[…]/min).
Activation of AlDeSense was assessed using 20 units of each ALDH isoform. Activity was determined by activity measurements using each isoform's preferred substrate (1 unit=1 μmol substrate turned over/mol enzyme/min). Further details are in the supplementary information. […]
AlDeSense activation was determined using fluorescence. […] After vigorous mixing, the reaction was monitored at room temperature for 15 min. Fluorescence spectra were acquired according to following parameters: λex=498 nm, and emission range=505-580 nm. […]

The test system of data set [8] is e-CSC and non-CSC melanoma lung metastases. In words: Ex vivo lung metastases imaging. As to conditions: lungs perfused ex vivo, day 7 and 11. In kind it is in vivo, mice. The method, then:
Six to eight-week-old female C57BL/6J mice were purchased from Jackson Laboratory. Experimental metastases were established by injecting 2×10^5 melanoma cells via lateral tail vein injection. Mice were euthanized at either 7- or 11-days post injection. Immediately after euthanization, their lungs were excised and perfused with about 1 mL of either 15 μM AlDeSense AM or 15 μM Ctrl-AlDeSense AM in PBS. Outer portions of the lungs were rinsed in 15 mL of PBS to remove blood or excess dyes. After 2 hours incubation at room temperature (25° C.), the lungs were imaged on the IVIS spectrum imaging system (Perkin Elmer). Data was processed using Living Image software (Version 4.1).

Data set [9] concerns e-CSC and non-CSC B16F0 tumors. In words: In vivo melanoma tumor fluorescence imaging. On the set-up: species or system mice. The settings on record: 1 and 2 weeks.

Turning to `Cc1cc(C=O)c(F)c(F)c1C1=C2C=CC(=O)C=C2[Si](C)(C)c2cc(O)ccc21`, in data set [1], the “bathochromic shift in absorbance and emission compared to AlDeSense” value is given as 100 nm; the “maximum emission (λem)” value came out at 614 nm; the λabs was 594 nm. Further, in [1] (Probes 1-8), the “Quantum Yield” value came out at 0.21. Besides, the “toxicity in cell viability assay” value in [2] is “nontoxic”. The “higher catalytic efficiency (kcat/Km) versus AlDeSense” value in [3] was 2.3 fold. The same compound showed a pKa in [4] of 6.68. Moreover, in data set [5] (species 100 μM, glutathione 1 mM, 2 μM red-AlDeSense), the “chemostability across reactive oxygen, nitrogen and sulfur species” value is reported as “only ALDH1A1 elicited turnover”.

In data set [1], `Cc1cc(C=O)ccc1-c1c2cc(F)c(=O)cc-2oc2cc(O)c(F)cc12` [AlDeSense] showed a ε of 61000 M⁻¹ cm⁻¹ and a λabs of 496 nm. The same compound returned a λcm in [1] (Table 1) of 516 nm. Besides, in data set [1] (at 503 nm, intersecting wavelength of normalized absorbance and emission), the ΔE00 came out at 2.46 eV. Further, the ΦF in data set [1] (prior to activation) was 0.04 and 0.041. The “Turn-on (fold)” value in data set [6] is 20 fold and 20.0 fold. Further, in data set [7], the “cross-reactivity against panel of ALDH isoforms” value was “only ALDH1A1 led to probe activation; also recorded: did not observe cross-reactivity; also recorded: selective for only the ALDH1A1 isoform”. In data set [2], the “toxicity in cell viability assay” value is listed as “non-toxic”. Further, the “fluorescence of e-CSC lungs versus non-CSC lungs” value in data set [8] is “higher”. Moreover, the “signal in e-CSC versus non-CSC tumors” value in data set [9] is given as “consistently higher signal”. In addition, in data set [5] (100 μM (GSH 1 mM), 1 μM AlDeSense), the “response to thiols and amines” value was “did not detect formation of fluorescent hemithioacetal and Schiff base products”. Moreover, in data set [5] (100 μM species, 1 μM AlDeSense), the “response to panel of reactive oxygen species” value was “did not observe any oxidized fluorescent products”.
